# Reference: US6284768A, “Src family SH2 domain inhibitors” (Boehringer Ingelheim Pharmaceuticals, Inc., priority 1999, dated 2001)
# Where two headings read alike, the source gives them in different places.
# Tests used:
# [1] = molecular target: T1, p56lck GST-SH2 (lck SH2 domain) (Homo sapiens, UniProt P06239); assay: Receptor-ligand equilibrium binding constants by surface plasmon resonance (biosensor), lck SH2 domain
# T1 construct: GST (N)
# [2] = tested on: Inter-leukin 2 (IL-2) production by activated Human Primary T Lymphocytes; assay: Primary T cell assay: inhibition of IL-2 production by activated human primary CD4 positive T lymphocytes; format: cell-based; conditions: Homo sapiens, Table 5, mean IC50 value, CD4 positive T cells activated with anti-CD3/anti-CD28, IL-2 by ELISA, read-out: IC50 (blocking IL-2 production)
# Procedure: Summary of Primary T Cell Assay.
# Inhibitors of the lck SH2 domain were assayed for their ability to block Inter-leukin 2 (IL-2) production by activated Human Primary T Lymphocytes. Peripheral blood mononuclear cells were isolated from whole blood by centrifugation in ficoll-Pague partitioning medium. CD4 positive cells were purified using negative selection. […] The compounds, at the appropriate dilutions, were added, and the cells were incubated for 60 minutes at 37° C. The CD4 positive T cells were then activated by the addition of anti-CD3 (60 ng/mL), anti CD28 (500 ng/mL) and goat anti mouse IgG coated beads, and incubated overnight at 37° C. The cells were pelleted, and the supernatents assayed for IL-2 by ELISA.
# As SH2 domain containing proteins are intracellular, any therapeutic agent must be able to cross biological membranes. […] These characteristics may be quantified by observing inhibition in IL-2 production in human blood CD4 positive T-lymphocytes after T cell receptor and CD28 cross-linking.
# [3] = Table 1, compounds of formula (II)
# T1 sequence (P06239 127-224 limits assumed): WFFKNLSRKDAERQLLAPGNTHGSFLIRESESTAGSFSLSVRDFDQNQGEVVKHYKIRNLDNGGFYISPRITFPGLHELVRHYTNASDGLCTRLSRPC
SMILES,"Kd [1, 3] [µM]",IC50 ([2]; CD4 positive) [µM],"Kd ([1]; Table 2, compounds of formula (III)) [µM]",IC50 [2] [µM]
Cc1ccn(CCCCC(C)C)c(=O)c1NC(=O)C(Cc1ccc(C(C)(C)C(=O)O)cc1)NC(=O)Cc1ccc2ccccc2c1 (stereo not shown) [Compound 145],0.84,56,–,–
COc1ccc(Cn2ccc(C)c(NC(=O)[C@H](Cc3ccc(C(C)(C)C(=O)O)cc3)NC(=O)Cc3ccc4ccccc4c3)c2=O)cc1 [Compound 97],0.14,113,–,–
CCCCCCn1cc(-c2ccccc2)c(C)c(NC(=O)C(Cc2ccc(C(C)(C)C(=O)O)cc2)NC(=O)Cc2ccc3ccccc3c2)c1=O (stereo not shown) [Compound 231],< 8,57,–,–
COc1ccc(Cn2ccc(C)c(NC(=O)C(Cc3ccc(C(C)(C)C(=O)O)cc3)NC(=O)COc3cccc4c(N(C)C)cccc34)c2=O)cc1 (stereo not shown) [Compound 175],0.78,108,–,–
COc1ccc(Cn2ccc(C)c(NC(=O)[C@H](Cc3ccc(C(C)(C)C(=O)O)cc3)NC(=O)Cc3ccc(C(C)C)cc3)c2=O)cc1 [Compound 94],0.21,156,–,–
COc1ccc(Cn2ccc(C)c(NC(=O)C(Cc3ccc(C(C)(C)C(=O)O)cc3)NC(=O)Cc3ccc(C(C)(C)C)cc3)c2=O)cc1 (stereo not shown) [Compound 173],0.31,93,–,–
CCOc1ccc(Cn2ccc(C)c(NC(=O)C(Cc3ccc(C(C)(C)C(=O)O)cc3)NC(=O)C(C)(C)c3ccc4ccccc4c3)c2=O)cc1 (stereo not shown) [Compound 139],2.9,56,–,–
COc1ccc(Cn2ccc(C)c(NC(=O)[C@H](Cc3ccc(C(C)(C)C(=O)O)cc3)NC(=O)[C@@H](C)c3ccc4ccccc4c3)c2=O)cc1 [Compound 46],2.3,58,–,–
Cc1ccn(Cc2ccc3c(c2)OCO3)c(=O)c1NC(=O)C(Cc1ccc(C(C)(C)C(=O)O)cc1)NC(=O)C(C)(C)c1ccc2ccccc2c1 (stereo not shown) [Compound 154],1.2,45,–,–
Cc1ccn(Cc2ccccc2Oc2ccccc2)c(=O)c1NC(=O)C(Cc1ccc(C(C)(C)C(=O)O)cc1)NC(=O)Cc1ccc2ccccc2c1 (stereo not shown) [Compound 156],4,46,–,–
CCCCCCn1ccc(C)c(NC(=O)C(Cc2ccc(C(C)(C)C(=O)O)cc2)NC(=O)Cc2c(F)c(F)c(F)c(F)c2F)c1=O (stereo not shown) [Compound 142],1.3,94,–,–
"COc1ccc(Cn2ccc(C)c(NC(=O)[C@H](Cc3ccc(C4(C(=O)O)CC4)cc3)NC(=O)Cc3ccc4ccccc4c3)c2=O)cc1 [Compound 218, 3-[2'-(S)-(2""""-Naphthylacetyl)amino-3'-[4""-(1'""-carboxy)cyclopropyl]benzene]propanoylamino-1-(4-methoxybenzyl)-4-methyl-2-pyridone]",1.8,90,–,–
COc1ccc(C(C)n2ccc(C)c(NC(=O)C(Cc3ccc(C(C)(C)C(=O)O)cc3)NC(=O)C(C)(C)c3ccc4ccccc4c3)c2=O)cc1 (stereo not shown) [Compound 184],1.3,53,–,–
COc1ccc(C(C)n2ccc(C)c(NC(=O)C(Cc3ccc(C(C)(C)C(=O)O)cc3)NC(=O)Cc3cccc4ccccc34)c2=O)cc1 (stereo not shown) [Compound 178],0.68,65,–,–
COc1ccc(Cn2ccc(C)c(NC(=O)[C@H](Cc3ccc(C(C)(C)C(=O)O)cc3)NC(=O)C(C)(C)c3ccc4ccccc4c3)c2=O)cc1 [Compound 107],–,–,–,48
COc1ccc(Cn2ccc(C)c(NC(=O)C(Cc3ccc(C(C)(C)C(=O)O)cc3)NC(=O)C(F)(F)F)c2=O)cc1 (stereo not shown) [Compound 176],1.8,–,–,–
"COc1ccc(Cn2ccc(C)c(NC(=O)[C@H](Cc3ccc(C(CO)C(=O)O)cc3)NC(=O)Cc3cccc4ccccc34)c2=O)cc1 (stereo partly drawn) [Compound 136, 3-[2'-(S)-(1'""-Naphthylacetyl)amino-3'-[4""-(1'""-(R,S)-carboxy-2'""-hydroxy)ethyl]benzene]propanoylamino-1-(4-methoxybenzyl)-4-methyl-2-pyridone]",5.6,–,–,–
COCCCCn1ccc(C)c(NC(=O)C(Cc2ccc(C(C)(C)C(=O)O)cc2)NC(=O)Cc2ccc3ccccc3c2)c1=O (stereo not shown) [Compound 237],3.1,–,–,–
CCCCCn1ccc(C)c(NC(=O)C(Cc2ccc(C(C)(C)C(=O)O)cc2)NC(=O)Cc2cccc3ccccc23)c1=O (stereo not shown) [Compound 191],3.1,–,–,–
COc1ccc(Cn2ccc(C)c(NC(=O)[C@H](Cc3ccc(CC(=O)O)cc3)NC(=O)COc3cccc4cnccc34)c2=O)cc1 [Compound 84],400,–,–,–
COc1ccc(Cn2ccc(C)c(NC(=O)[C@H](Cc3ccc(C(C)(C)C(=O)O)cc3)NC(=O)Cc3c[nH]c4ccccc34)c2=O)cc1 [Compound 98],0.43,–,–,–
COc1ccc(Cn2ccc(C)c(NC(=O)[C@H](Cc3ccc(NC(=O)C(=O)O)cc3)NC(=O)Cc3c[nH]c4ccccc34)c2=O)cc1 [Compound 5],1.3,–,–,–
COc1ccc(Cn2ccc(C)c(NC(=O)[C@H](Cc3ccc(C(C)(C)C(=O)O)cc3)NC(=O)Cc3ccccc3C)c2=O)cc1 [Compound 113],0.87,–,–,–
Cc1ccn(Cc2ccc(C(=O)C(F)(F)F)cc2)c(=O)c1NC(=O)C(Cc1ccc(C(C)(C)C(=O)O)cc1)NC(=O)Cc1ccc2ccccc2c1 (stereo not shown) [Compound 226],33,–,–,–
Cc1ccn(C/C=C/c2ccccc2)c(=O)c1NC(=O)C(Cc1ccc(C(C)(C)C(=O)O)cc1)NC(=O)C(C)(C)c1ccc2ccccc2c1 (stereo not shown) [Compound 177],3.2,–,–,–
COc1ccc(Cn2ncc(C)c(NC(=O)[C@H](Cc3ccc(CC(=O)O)cc3)NC(=O)Cc3cccc4ccccc34)c2=O)cc1 [Compound 243],–,–,35,–
COc1ccc(Cn2ccc(C)c(NC(=O)[C@H](Cc3ccc(C(C)(C)C(=O)O)cc3)NC(=O)Cc3ccc(Br)cc3)c2=O)cc1 [Compound 110],0.18,–,–,–
Cc1ccn(Cc2ccccc2)c(=O)c1NC(=O)C(Cc1ccc(C(C)(C)C(=O)O)cc1)NC(=O)Cc1cccc2ccccc12 (stereo not shown) [Compound 197],9,–,–,–
COc1ccc(Cn2ccc(C)c(NC(=O)[C@H](Cc3ccc(CC(=O)O)cc3)NC(=O)C(C)C)c2=O)cc1 [Compound 75],6.7,–,–,–
COc1ccc(Cn2ccc(C)c(NC(=O)[C@H](Cc3ccc(CC(=O)O)cc3)NC(=O)Cc3cccc(Oc4ccccc4)c3)c2=O)cc1 [Compound 61],3.3,–,–,–

# Second part, led by results:
"Kd [1, 3] [µM]",IC50 ([2]; CD4 positive) [µM],"Kd ([1]; Table 2, compounds of formula (III)) [µM]",SMILES,IC50 [2] [µM]
0.47,82,–,CCC(CC)(C(=O)O)c1ccc(C[C@H](NC(=O)Cc2ccc3ccccc3c2)C(=O)Nc2c(C)ccn(Cc3ccc(OC)cc3)c2=O)cc1 [Compound 106],–
0.66,96,–,COc1ccc(Cn2ccc(C)c(NC(=O)C(Cc3ccc(C(C)(C)C(=O)O)cc3)NC(=O)Cc3ccc(Oc4ccccc4)cc3)c2=O)cc1 (stereo not shown) [Compound 172],–
1.5,42,–,COc1ccc(Cn2ccc(C)c(NC(=O)[C@H](Cc3ccc(C(C)(C)C(=O)O)cc3)NC(=O)C(C)(C)c3ccc(CC(C)C)cc3)c2=O)cc1 [Compound 124],–
0.57,96,–,"COc1ccc(Cn2ccc(C)c(NC(=O)[C@H](Cc3ccc(C(C)(C)C(=O)O)cc3)NC(=O)Cc3cccc4ccccc34)c2=O)cc1 [Compound 2, 3-[2'-(S)-(1""-Naphthylacetyl)amino-3'-[4'""-(1'""-carboxy-1'""-methyl)ethyl]benzene]propanoylamino-1-(4-methoxybenzyl)-4-methyl-2-pyridone]",–
1,67,–,COc1ccc(Cn2ccc(C)c(NC(=O)C(Cc3ccc(C(C)(C)C(=O)O)cc3)NC(=O)COc3cccc4ccccc34)c2=O)cc1 (stereo not shown) [Compound 174],–
4.2,–,–,COc1ccc(Cn2ccc(C)c(NC(=O)[C@H](Cc3ccc(NC(=O)C(=O)O)cc3)NC(=O)c3csc(NS(=O)(=O)c4ccc(Cl)cc4)n3)c2=O)cc1 [Compound 14],–
39,–,–,"COc1ccc(Cn2ccc(C)c(NC(=O)[C@H](Cc3ccc(C(CO)C(=O)O)cc3)NC(=O)OCc3ccccc3)c2=O)cc1 (stereo partly drawn) [Compound 50, 3-[2-(S)-Benzyloxycarbonylamino-3-[4'-(1""-(R,S)-carboxy-2""-hydroxy)ethyl]benzene]propanoylamino-1-(4-methoxybentyl)-4-methyl-2-pyridone]",–
> 500,–,–,Cc1ccn(Cc2ccc(C(C)C)cc2)c(=O)c1NC(=O)[C@H](Cc1ccc(CC(=O)O)cc1)NC(=O)Cc1cccc2ccccc12 [Compound 54],–
30.5,–,–,Cc1ccn(CCc2ccccc2)c(=O)c1NC(=O)[C@H](Cc1ccc(CC(=O)O)cc1)NC(=O)Cc1cccc2ccccc12 [Compound 21],–
2.5,–,–,Cc1ccn(Cc2ccccc2)c(=O)c1NC(=O)C(Cc1ccc(C(C)(C)C(=O)O)cc1)NC(=O)Cc1ccc2ccccc2c1 (stereo not shown) [Compound 198],–
1.9,–,–,COc1ccc(Cn2ccc(C)c(NC(=O)[C@H](Cc3ccc(NC(=O)C(=O)O)cc3)NC(=O)Cc3ccccc3)c2=O)cc1 [Compound 102],–
12,–,–,COc1ccc(Cn2ccc(C)c(NC(=O)[C@H](Cc3ccc(CC(=O)O)cc3)NC(=O)C(C)(C)C)c2=O)cc1 [Compound 63],–
23,–,–,COc1ccc(C(C)n2ccc(C)c(NC(=O)[C@H](Cc3ccc(CC(=O)O)cc3)NC(C)=O)c2=O)cc1 (stereo partly shown) [Compound 81],–
6,–,–,COCCOCCn1ccc(C)c(NC(=O)C(Cc2ccc(C(C)(C)C(=O)O)cc2)NC(=O)Cc2ccc3ccccc3c2)c1=O (stereo not shown) [Compound 143],–
2.1,–,–,COc1ccc(Cn2ccc(C)c(NC(=O)[C@H](Cc3ccc(NC(=O)C(=O)O)cc3)NC(=O)Cc3cccc(N(C)C)c3)c2=O)cc1 [Compound 49],–
